Columns and labels:
Experiment in all cases: KINOMEscan competition binding
Settings in all cases: compound 10.0 µM
[1] = target: MERTK (human) (UniProt Q12866)
[2] = target: PRKAA2 (human) (UniProt P54646)
[3] = target: RET (human) (UniProt P07949)
[4] = target: PIM1 (human) (UniProt P11309)
[5] = target: MAP2K2 (human) (UniProt P36507)
[6] = target: TTK (human) (UniProt P33981)
[7] = target: SYK (human) (UniProt P43405)
[8] = target: KIT (human) (UniProt P10721)
[9] = target: CDK7 (human) (UniProt P50613)
[10] = target: MKNK2 (human) (UniProt Q9HBH9)
Chain of MKNK2 (human) (Q9HBH9 whole entry, looked up): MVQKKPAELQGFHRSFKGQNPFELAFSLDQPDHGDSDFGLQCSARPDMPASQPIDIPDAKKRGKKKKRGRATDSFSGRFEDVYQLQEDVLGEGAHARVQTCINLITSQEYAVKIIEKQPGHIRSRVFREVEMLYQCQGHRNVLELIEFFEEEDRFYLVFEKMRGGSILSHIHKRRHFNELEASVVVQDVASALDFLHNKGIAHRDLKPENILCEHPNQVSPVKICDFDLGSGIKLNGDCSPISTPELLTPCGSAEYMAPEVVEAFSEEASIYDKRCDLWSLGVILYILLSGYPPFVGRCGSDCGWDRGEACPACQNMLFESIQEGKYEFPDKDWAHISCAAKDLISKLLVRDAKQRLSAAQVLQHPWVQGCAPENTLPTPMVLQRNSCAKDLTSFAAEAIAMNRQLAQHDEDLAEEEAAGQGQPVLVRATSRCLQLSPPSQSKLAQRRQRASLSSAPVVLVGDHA

[11] = target: EPHB1 (human) (UniProt P54762)
[12] = target: ZAP70 (human) (UniProt P43403)
[13] = target: SIK3 (human) (UniProt Q9Y2K2)
[14] = target: PIM2 (human) (UniProt Q9P1W9)
[15] = target: PRKD2 (human) (UniProt Q9BZL6)
[16] = target: CSNK1G2 (human) (UniProt P78368)
[17] = target: SIK1 (human) (UniProt P57059)
[18] = target: CLK4 (human) (UniProt Q9HAZ1)
[19] = target: MET (human) (UniProt P08581)
[20] = target: EPHB3 (human) (UniProt P54753)
Chain of EPHB3 (human) (P54753 whole entry, looked up): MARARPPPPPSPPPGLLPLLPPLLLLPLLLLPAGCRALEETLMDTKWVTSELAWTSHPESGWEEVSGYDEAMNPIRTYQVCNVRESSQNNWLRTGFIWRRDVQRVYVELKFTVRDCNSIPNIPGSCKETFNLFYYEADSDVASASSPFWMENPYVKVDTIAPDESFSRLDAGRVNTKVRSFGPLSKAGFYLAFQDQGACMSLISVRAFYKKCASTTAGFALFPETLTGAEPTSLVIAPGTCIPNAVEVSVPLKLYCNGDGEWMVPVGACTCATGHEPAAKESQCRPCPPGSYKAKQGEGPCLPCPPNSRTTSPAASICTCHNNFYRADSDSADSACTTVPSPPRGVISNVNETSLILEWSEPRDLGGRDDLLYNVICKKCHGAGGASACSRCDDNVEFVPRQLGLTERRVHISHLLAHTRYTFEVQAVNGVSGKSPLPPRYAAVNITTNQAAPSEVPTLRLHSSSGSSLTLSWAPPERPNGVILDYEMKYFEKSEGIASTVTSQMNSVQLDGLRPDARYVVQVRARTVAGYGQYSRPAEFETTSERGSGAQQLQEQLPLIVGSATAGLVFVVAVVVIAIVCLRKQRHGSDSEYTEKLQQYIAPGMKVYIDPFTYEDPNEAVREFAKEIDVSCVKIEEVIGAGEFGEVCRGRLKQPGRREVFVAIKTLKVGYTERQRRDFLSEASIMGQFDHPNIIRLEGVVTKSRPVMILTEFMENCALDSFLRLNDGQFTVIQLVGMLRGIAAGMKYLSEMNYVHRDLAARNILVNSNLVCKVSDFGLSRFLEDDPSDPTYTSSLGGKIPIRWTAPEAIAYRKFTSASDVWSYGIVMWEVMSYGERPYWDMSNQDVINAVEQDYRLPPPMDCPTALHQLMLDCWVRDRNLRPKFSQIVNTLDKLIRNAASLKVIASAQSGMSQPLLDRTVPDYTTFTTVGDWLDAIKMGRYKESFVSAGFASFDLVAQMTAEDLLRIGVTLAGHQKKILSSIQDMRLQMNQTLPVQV

[21] = target: RPS6KA2 KD2 (human) (UniProt Q15349)
[22] = target: PIK3CD (human) (UniProt O00329)
[23] = target: FGFR2 (human) (UniProt P21802)
[24] = target: TBK1 (human) (UniProt Q9UHD2)
[25] = target: TLK1 (human) (UniProt Q9UKI8)
[26] = target: AKT2 (human) (UniProt P31751)
[27] = target: HCK (human) (UniProt P08631)
[28] = target: STK38L (human) (UniProt Q9Y2H1)
[29] = target: HIPK2 (human) (UniProt Q9H2X6)
[30] = target: STK36 (human) (UniProt Q9NRP7)
[31] = target: PRKG2 (human) (UniProt Q13237)
[32] = target: MYLK (human) (UniProt Q15746)
[33] = target: FLT1 (human) (UniProt P17948)
Chain of FLT1 (human) (P17948 whole entry, looked up): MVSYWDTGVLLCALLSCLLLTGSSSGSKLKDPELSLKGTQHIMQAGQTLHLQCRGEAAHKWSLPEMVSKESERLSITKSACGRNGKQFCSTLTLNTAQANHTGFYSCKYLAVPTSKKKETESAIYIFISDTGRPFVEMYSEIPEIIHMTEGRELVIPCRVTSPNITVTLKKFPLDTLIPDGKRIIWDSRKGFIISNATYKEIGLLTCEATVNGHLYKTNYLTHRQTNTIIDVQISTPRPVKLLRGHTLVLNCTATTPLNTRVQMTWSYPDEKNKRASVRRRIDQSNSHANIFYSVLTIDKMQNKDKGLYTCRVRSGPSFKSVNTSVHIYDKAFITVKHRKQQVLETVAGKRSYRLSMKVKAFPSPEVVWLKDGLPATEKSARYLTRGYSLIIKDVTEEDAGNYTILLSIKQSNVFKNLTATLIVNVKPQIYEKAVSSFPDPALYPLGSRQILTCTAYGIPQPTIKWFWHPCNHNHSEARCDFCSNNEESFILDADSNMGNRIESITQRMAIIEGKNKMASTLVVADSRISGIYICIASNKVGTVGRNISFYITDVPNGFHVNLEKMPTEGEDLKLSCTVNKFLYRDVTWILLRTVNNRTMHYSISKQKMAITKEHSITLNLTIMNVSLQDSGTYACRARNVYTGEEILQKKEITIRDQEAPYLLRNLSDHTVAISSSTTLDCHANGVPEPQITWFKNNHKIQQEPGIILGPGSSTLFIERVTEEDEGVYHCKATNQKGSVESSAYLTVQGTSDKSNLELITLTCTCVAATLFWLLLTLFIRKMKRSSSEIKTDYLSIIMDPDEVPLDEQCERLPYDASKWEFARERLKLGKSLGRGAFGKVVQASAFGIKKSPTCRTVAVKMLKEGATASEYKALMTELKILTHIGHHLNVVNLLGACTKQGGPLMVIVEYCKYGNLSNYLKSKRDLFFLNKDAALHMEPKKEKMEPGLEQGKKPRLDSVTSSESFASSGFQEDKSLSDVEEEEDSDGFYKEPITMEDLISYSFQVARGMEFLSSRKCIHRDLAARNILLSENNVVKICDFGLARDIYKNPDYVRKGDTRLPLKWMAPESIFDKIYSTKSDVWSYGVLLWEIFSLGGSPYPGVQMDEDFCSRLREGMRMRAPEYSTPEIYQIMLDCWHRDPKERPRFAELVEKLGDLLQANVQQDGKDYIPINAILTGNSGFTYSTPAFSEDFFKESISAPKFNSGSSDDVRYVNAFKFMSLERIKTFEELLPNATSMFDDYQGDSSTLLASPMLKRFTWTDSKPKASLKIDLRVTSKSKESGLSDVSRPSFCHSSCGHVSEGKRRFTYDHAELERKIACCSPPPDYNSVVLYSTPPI

[34] = target: TESK1 (human) (UniProt Q15569)
Chain of TESK1 (human) (Q15569 whole entry, looked up): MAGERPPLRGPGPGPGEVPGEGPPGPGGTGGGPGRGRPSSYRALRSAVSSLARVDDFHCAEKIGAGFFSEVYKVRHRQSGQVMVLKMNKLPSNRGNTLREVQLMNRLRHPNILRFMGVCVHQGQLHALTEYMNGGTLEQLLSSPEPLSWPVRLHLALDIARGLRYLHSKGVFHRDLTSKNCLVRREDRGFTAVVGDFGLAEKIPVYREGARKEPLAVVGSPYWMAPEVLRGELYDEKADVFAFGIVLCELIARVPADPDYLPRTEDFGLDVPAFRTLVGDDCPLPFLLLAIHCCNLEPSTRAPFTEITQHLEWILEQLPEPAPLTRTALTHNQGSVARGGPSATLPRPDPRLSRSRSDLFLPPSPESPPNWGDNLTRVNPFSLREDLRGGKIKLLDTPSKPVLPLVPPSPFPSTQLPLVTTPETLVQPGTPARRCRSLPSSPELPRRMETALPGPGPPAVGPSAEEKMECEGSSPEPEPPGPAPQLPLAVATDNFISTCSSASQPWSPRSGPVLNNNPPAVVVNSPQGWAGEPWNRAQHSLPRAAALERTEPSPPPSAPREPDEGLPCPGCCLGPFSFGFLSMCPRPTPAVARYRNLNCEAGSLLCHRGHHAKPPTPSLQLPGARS

[35] = target: CDC42BPG (human) (UniProt Q6DT37)
[36] = target: PLK1 (human) (UniProt P53350)

Chain of RET (human) (P07949 whole entry, looked up): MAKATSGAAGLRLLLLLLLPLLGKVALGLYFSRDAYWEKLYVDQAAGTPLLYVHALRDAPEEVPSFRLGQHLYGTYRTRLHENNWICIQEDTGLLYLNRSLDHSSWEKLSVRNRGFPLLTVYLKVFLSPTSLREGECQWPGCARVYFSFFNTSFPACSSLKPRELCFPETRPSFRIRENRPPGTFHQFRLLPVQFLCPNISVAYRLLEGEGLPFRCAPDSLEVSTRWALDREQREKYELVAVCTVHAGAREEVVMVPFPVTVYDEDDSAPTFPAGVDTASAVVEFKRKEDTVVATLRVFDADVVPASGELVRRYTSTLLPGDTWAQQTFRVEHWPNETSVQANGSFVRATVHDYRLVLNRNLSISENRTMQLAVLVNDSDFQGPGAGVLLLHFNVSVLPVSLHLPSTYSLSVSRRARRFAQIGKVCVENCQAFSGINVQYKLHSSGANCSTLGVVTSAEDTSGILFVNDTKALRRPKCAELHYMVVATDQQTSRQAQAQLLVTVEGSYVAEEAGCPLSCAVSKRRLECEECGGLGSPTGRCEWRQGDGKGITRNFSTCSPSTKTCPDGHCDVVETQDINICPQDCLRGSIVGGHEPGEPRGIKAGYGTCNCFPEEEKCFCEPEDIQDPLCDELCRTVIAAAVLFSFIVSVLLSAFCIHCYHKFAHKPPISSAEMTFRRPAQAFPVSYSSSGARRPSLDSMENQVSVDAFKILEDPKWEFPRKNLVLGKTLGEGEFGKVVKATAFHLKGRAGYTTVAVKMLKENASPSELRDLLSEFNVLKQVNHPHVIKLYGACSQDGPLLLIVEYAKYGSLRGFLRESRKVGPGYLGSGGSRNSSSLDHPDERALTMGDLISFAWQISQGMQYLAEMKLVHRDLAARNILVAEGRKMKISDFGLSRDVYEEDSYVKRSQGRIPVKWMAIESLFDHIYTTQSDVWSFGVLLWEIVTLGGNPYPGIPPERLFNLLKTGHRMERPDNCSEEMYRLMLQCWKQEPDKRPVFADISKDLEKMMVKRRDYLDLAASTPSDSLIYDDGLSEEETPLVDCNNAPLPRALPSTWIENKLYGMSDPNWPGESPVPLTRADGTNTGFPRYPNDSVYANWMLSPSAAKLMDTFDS
Chain of PRKAA2 (human) (P54646 whole entry, looked up): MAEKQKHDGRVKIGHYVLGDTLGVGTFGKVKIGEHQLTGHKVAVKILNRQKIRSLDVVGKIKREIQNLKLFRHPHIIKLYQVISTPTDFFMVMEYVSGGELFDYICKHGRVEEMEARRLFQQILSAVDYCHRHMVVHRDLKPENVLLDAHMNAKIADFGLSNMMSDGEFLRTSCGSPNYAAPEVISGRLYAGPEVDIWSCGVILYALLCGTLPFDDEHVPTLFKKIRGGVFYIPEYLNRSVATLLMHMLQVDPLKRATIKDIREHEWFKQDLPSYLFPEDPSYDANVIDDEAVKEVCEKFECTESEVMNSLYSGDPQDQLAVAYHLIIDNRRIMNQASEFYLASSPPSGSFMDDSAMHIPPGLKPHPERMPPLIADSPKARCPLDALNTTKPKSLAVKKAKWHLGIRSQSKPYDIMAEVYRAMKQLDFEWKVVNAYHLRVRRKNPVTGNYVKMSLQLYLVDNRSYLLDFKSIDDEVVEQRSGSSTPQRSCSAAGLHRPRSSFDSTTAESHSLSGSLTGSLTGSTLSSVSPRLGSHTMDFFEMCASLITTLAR

kinase still bound, per cent of control [1] [%]	kinase still bound, per cent of control [2] [%]	kinase still bound, per cent of control [3] [%]	kinase still bound, per cent of control [4] [%]	kinase still bound, per cent of control [5] [%]	kinase still bound, per cent of control [6] [%]	kinase still bound, per cent of control [7] [%]	kinase still bound, per cent of control [8] [%]	kinase still bound, per cent of control [9] [%]	kinase still bound, per cent of control [10] [%]	kinase still bound, per cent of control [11] [%]	kinase still bound, per cent of control [12] [%]	kinase still bound, per cent of control [14] [%]	kinase still bound, per cent of control [15] [%]	kinase still bound, per cent of control [16] [%]	kinase still bound, per cent of control [17] [%]	kinase still bound, per cent of control [18] [%]	kinase still bound, per cent of control [19] [%]	kinase still bound, per cent of control [20] [%]	kinase still bound, per cent of control [21] [%]	SMILES	other results
100	100	100	100	100	19	100	100	100	100	100	100	100	100	100	100	100	100	100	100	CCOc1cc(N2CCC(O)CC2)ccc1Nc1ncc2c(n1)N(C)c1ccccc1C(=O)N2C	kinase still bound, per cent of control [13]: 100%; kinase still bound, per cent of control [22]: 100%; kinase still bound, per cent of control [23]: 100%; kinase still bound, per cent of control [24]: 100%; kinase still bound, per cent of control [25]: 100%; kinase still bound, per cent of control [26]: 100%; kinase still bound, per cent of control [27]: 100%; kinase still bound, per cent of control [28]: 100%; kinase still bound, per cent of control [29]: 100%; kinase still bound, per cent of control [30]: 100%; kinase still bound, per cent of control [31]: 100%; kinase still bound, per cent of control [32]: 100%; kinase still bound, per cent of control [33]: 100%; kinase still bound, per cent of control [34]: 100%; kinase still bound, per cent of control [35]: 100%; kinase still bound, per cent of control [36]: 100%
3.2	100	100	100	100	100	100	100	1.4	100	24	100	100	100	100	100	33	29	100	100	COc1cc(C)c(Sc2cnc(NC(=O)c3ccc(CNC(C)C(C)C)cc3)s2)cc1C(=O)N1CCN(C(C)=O)CC1 (centres undefined)	kinase still bound, per cent of control [22]: 100%; kinase still bound, per cent of control [23]: 100%; kinase still bound, per cent of control [25]: 100%; kinase still bound, per cent of control [26]: 100%; kinase still bound, per cent of control [27]: 100%; kinase still bound, per cent of control [28]: 7%; kinase still bound, per cent of control [30]: 100%; kinase still bound, per cent of control [31]: 100%; kinase still bound, per cent of control [32]: 100%; kinase still bound, per cent of control [33]: 100%; kinase still bound, per cent of control [34]: 100%; kinase still bound, per cent of control [35]: 100%; kinase still bound, per cent of control [36]: 100%
32	100	100	100	100	7	100	100	100	14	100	100	100	100	100	100	5.5	100	100	18	COc1cc(N2CCC(C(N)=O)CC2)ccc1Nc1nc(N)c(Cl)c(Nc2ccccc2S(=O)(=O)C(C)C)n1	kinase still bound, per cent of control [22]: 100%; kinase still bound, per cent of control [23]: 100%; kinase still bound, per cent of control [25]: 100%; kinase still bound, per cent of control [26]: 100%; kinase still bound, per cent of control [27]: 24%; kinase still bound, per cent of control [28]: 100%; kinase still bound, per cent of control [30]: 100%; kinase still bound, per cent of control [31]: 100%; kinase still bound, per cent of control [32]: 5%; kinase still bound, per cent of control [33]: 100%; kinase still bound, per cent of control [34]: 100%; kinase still bound, per cent of control [35]: 100%; kinase still bound, per cent of control [36]: 21%
1.2	3.3	0.35	100	100	100	4	0.8	100	100	0.15	100	100	100	100	0.1	100	100	0	100	COc1ccc(N(C(=O)Oc2cc(C(=O)Nc3cccc(C(F)(F)F)c3)ccc2C)c2ccnc(Nc3ccc(N4CCN(C)CC4)cc3)n2)c(OC)c1	kinase still bound, per cent of control [23]: 3.4%; kinase still bound, per cent of control [25]: 100%; kinase still bound, per cent of control [26]: 100%; kinase still bound, per cent of control [27]: 0.2%; kinase still bound, per cent of control [28]: 100%; kinase still bound, per cent of control [30]: 1.2%; kinase still bound, per cent of control [31]: 100%; kinase still bound, per cent of control [32]: 100%; kinase still bound, per cent of control [33]: 1.2%; kinase still bound, per cent of control [34]: 3.8%; kinase still bound, per cent of control [35]: 100%; kinase still bound, per cent of control [36]: 100%

Reference: the kinase profiling compilation of Christmann-Franck et al. (2016)
